The values below come from ChEMBL document CHEMBL3769330, “Synthesis of pyrimido[4,5-c]azepine- and pyrimido[4,5-c]oxepine-based γ-secretase modulators” (Bioorg Med Chem Lett, 2016).

Calls of active or inactive are those of the source. No cut-off for these calls is given here.

What is called IC50 is the concentration needed to halve the response being measured.

The target of assay [1] is Gamma-secretase. The assay can be described thus: Modulation of gamma-secretase activity (unknown origin) assessed as amyloid-beta(1-42) production by ELISA. It is filed as protein-complex assay, Homo sapiens. For orientation: An ELISA detects its analyte on a solid surface through an enzyme-linked reagent.
The test system of assay [2] is Rattus norvegicus. The assay can be described thus: Reduction of amyloid-beta peptides level in rat brain at 30 mg/kg, po. Format: functional, organism-based.

As for `COc1cc(Nc2nc3c(c(N(C)C)n2)C=CCN=C3c2ccccc2)ccc1-n1cnc(Cl)c1`, in assay [1], the IC50 was found to be 21 nM. Also, in assay [2], the inhibition entry was “Active”.

`CNc1nc(Nc2ccc(-n3cnc(Cl)c3)c(OC)c2)nc2c1C=CCN=C2c1ccccc1`: in assay [1], the IC50 is 5 nM. Also, the inhibition result in assay [2] was “Active”. On to `COc1cc(Nc2nc3c(c(N(C)C)n2)C=CCNC3c2ccccc2)ccc1-n1cnc(Cl)c1` (stereo unspecified), for which the IC50 in assay [1] amounted to 36 nM. With `COc1cc(Nc2nc3c(c(N(C)C)n2)C=CCOC3c2ccccc2)ccc1-n1cnc(Cl)c1` (stereo unspecified), in assay [1], the IC50 came out at 56 nM.
